Data taken from patent US20100279997A1, “ANALGESIC THAT BINDS FILAMIN A” (priority 2009, published 2010).
Like-named read-outs stand apart in the source and are kept apart here.

Assays:
μ opiate receptor (MOR) = molecular target: T1, μ opiate receptor (MOR) (Rattus norvegicus, UniProt P33535); assay: MOR agonist activity, [35S]GTPγS binding assay using striatal membranes; type: biochemical; settings: for [35S]GTPγS binding to Gαo, FLNA-binding compound as agonist 0.1 μM: 0.1 μM compound; for [35S]GTPγS binding to Gαo, FLNA-binding compound as agonist 0.1 μM / [35S]GTPγS binding to Gαo, FLNA-binding compound as agonist 1 μM: striatal membranes; for [35S]GTPγS binding to Gαo, FLNA-binding compound as agonist 1 μM + BFNA: 1 μM compound + 1 μM β-funaltrexamine; for [35S]GTPγS binding to Gαo, FLNA-binding compound as agonist 1 μM: 1 μM compound; for % DAMGO + BFNA: relative to DAMGO + BFNA; for % DAMGO (0.1 μM) / % DAMGO (1 μM): relative to DAMGO
T1 construct: from tissue; host or cells: striatal tissue (membrane preparation)

[1] = molecular target: Bn-VAKGL pentapeptide of filamin A (FLNA) (Homo sapiens, UniProt P21333); assay: FITC-NLX-based FLNA screening assay (FLNA peptide binding assay)
Method: The final assay volume is 100 μl.
Compounds are tested in triplicate or quadruplicate.

[2] = Mouse hot-water tail-flick test; type: in vivo
Method: The mouse “tail flick” test was used to assay the relative antinociceptive activity of compositions containing a compound to be assayed. This assay was substantially that disclosed by Xie et al., 2005 J. Neurosci 25:409-416.
The mouse hot-water tail-flick test was performed by placing the distal third of the tail in a water bath maintained at 52° C. The latency until tail withdrawal from the bath was determined and compared among the treatments. A 10 second cutoff was used to avoid tissue damage. Data are converted to percentage of antinociception by the following formula: (response latency−baseline latency)/(cutoff−baseline latency)×100 to generate dose-response curves. […] Relative potency was determined as a ratio of the A50 values.
To assess tolerance to the antinociceptive effect, the compound was administered twice daily for 7 days at an A90 dose (dose that results in a 90% antinociceptive effect in the 52° C. warm-water tail-flick test), and the tail-flick test was performed daily after the a.m. dose.

filamin A = filamin A (Homo sapiens, UniProt P21333); settings: Wang et al, 2008 PLoS One 3:e1554; read-out: affinity of binding to filamin A; cited from earlier work
[3] = test system: MOR coupling to Gαs/olf and Gαo; assay: Relative Gs/Go switching, MOR-G protein coupling in organotypic striatal slice cultures; type: cell-based; settings: rat striatal slices
Method: Striatal slices ([…]) were prepared using a McIlwain tissue chopper (Mickle Laboratory Engineering Co., Surrey, UK). Slices were carefully transferred to sterile, porous culture inserts (0.4 μm, Millicell-CM) using the rear end of a glass Pasteur pipette. Each culture insert unit contained 2 slices and was placed into one well of the 12-well culture tray. […] The pH value was adjusted to 7.2 with HEPES buffer.
Cultures were first incubated for 2 days to minimize the impact of injury from slice preparation. Incubator settings throughout the experiment were 36° C. with 5% CO2.
Slices were returned to culture medium with normal serum after each drug exposure. Tissues were harvested 16 hours after the last drug exposure by centrifugation.
For determination of MOR-G protein coupling, slices were homogenized to generate synaptic membranes. […] Following centrifugation, striatal membrane lysates were immunoprecipitated with immobilized anti-Gαs/olf or -Gαo conjugated with immobilized protein G-agarose beads. The level of MOR in anti-Gαs/olf or -Gαo immunoprecipitates was determined by Western blotting using specific anti-MOR antibodies.

[4] = read-out: Percent inhibition of FITC-NLX binding, 0.01 μM
[5] = read-out: Percent inhibition of FITC-NLX binding, 0.1 μM
[6] = read-out: Percent inhibition of FITC-NLX binding, 1 μM
[7] = read-out: Percent inhibition of FITC-NLX binding, 0.01 μM, 0.01 μM compound, 10 nM FITC-NLX
[8] = read-out: Percent inhibition of FITC-NLX binding, 0.1 μM, 0.1 μM compound, 10 nM FITC-NLX
[9] = read-out: Percent inhibition of FITC-NLX binding, 1 μM, 1 μM compound, 10 nM FITC-NLX

T1 sequence (P33535 whole entry): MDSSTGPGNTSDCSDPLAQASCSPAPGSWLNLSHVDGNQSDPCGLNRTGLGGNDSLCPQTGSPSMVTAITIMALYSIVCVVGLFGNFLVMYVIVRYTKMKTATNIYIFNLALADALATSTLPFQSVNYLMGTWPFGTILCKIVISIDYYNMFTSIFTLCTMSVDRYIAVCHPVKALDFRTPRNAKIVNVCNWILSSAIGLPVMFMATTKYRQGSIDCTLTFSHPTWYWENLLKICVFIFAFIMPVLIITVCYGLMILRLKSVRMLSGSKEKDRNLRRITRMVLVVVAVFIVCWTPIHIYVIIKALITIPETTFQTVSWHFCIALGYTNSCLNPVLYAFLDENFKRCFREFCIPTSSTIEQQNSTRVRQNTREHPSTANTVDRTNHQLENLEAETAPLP
Chain of filamin A (P21333 whole entry): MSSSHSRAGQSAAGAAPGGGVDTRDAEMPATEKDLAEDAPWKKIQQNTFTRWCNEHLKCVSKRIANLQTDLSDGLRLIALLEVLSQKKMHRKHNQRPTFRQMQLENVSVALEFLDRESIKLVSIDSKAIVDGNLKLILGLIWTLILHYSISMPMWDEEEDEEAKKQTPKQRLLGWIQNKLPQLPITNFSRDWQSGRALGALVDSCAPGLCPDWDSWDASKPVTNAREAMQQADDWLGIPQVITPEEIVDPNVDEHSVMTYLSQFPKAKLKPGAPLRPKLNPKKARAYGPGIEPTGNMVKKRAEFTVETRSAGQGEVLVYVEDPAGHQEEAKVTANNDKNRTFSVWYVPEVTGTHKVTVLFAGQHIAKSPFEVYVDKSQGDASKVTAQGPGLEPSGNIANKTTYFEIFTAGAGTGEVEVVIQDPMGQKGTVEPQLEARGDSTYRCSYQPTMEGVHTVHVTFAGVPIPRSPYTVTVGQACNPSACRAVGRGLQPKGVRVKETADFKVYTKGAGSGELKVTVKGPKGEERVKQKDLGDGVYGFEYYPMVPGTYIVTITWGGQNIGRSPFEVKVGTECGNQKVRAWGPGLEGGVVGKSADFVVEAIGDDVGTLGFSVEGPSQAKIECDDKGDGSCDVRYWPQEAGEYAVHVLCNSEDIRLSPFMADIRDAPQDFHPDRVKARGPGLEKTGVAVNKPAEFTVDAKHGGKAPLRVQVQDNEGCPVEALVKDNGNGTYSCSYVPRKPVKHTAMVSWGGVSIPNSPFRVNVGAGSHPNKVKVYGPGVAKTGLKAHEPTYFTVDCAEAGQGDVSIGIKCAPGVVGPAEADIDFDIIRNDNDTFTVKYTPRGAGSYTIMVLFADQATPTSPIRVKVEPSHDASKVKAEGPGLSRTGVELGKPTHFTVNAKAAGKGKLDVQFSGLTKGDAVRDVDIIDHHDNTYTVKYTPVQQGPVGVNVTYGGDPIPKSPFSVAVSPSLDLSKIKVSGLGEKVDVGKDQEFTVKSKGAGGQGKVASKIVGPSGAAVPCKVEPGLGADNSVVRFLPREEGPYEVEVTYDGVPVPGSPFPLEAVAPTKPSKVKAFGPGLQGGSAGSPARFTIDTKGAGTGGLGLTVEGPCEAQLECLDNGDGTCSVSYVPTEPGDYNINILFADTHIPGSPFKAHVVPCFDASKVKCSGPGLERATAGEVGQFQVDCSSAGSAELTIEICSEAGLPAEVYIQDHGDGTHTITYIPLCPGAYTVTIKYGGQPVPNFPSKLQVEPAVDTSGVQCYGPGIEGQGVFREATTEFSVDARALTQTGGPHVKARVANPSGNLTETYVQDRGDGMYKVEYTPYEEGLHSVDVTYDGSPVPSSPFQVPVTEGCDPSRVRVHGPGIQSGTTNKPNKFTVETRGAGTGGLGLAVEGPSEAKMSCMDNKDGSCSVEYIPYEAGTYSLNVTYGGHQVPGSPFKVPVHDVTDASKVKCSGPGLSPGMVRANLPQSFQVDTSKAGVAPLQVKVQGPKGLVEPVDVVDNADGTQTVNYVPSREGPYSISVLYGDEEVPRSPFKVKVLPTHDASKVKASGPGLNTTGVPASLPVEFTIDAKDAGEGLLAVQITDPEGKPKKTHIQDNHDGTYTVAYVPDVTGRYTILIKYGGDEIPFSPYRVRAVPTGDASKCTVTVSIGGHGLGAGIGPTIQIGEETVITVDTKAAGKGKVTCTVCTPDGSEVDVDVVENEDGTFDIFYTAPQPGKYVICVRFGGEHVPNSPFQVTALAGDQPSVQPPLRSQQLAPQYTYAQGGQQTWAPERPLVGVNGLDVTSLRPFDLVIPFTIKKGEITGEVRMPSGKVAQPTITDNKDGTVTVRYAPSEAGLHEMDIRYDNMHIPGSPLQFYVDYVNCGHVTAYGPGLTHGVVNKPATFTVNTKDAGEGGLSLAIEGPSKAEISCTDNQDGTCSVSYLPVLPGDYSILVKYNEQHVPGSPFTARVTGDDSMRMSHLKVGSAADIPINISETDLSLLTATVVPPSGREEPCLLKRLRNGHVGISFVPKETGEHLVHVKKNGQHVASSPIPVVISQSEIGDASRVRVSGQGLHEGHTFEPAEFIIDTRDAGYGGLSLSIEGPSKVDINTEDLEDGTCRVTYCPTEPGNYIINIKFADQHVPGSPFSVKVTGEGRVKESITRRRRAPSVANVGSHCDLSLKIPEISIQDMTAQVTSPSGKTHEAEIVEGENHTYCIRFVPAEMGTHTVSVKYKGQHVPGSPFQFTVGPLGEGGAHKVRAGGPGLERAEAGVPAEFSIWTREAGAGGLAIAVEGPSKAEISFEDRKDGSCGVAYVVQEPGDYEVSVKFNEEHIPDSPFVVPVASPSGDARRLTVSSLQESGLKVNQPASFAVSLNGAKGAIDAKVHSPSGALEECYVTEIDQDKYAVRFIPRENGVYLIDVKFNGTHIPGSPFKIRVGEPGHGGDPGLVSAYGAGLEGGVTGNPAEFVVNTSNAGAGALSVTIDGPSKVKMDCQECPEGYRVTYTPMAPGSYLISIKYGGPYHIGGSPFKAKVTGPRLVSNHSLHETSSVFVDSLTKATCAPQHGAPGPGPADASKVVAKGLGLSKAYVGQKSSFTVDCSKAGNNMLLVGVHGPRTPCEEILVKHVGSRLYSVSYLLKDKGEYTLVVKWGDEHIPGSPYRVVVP

CC1CCC(C(C)C)C(OCC(O)CN2CCc3ccccc32)C1 (centres unmarked) [Compound A0065]
[35S]GTPγS binding to Gαo, FLNA-binding compound as agonist 0.1 μM (μ opiate receptor (MOR)): 197.6%
[35S]GTPγS binding to Gαo, FLNA-binding compound as agonist 1 μM + BFNA (μ opiate receptor (MOR)): 44.9%
[35S]GTPγS binding to Gαo, FLNA-binding compound as agonist 1 μM (μ opiate receptor (MOR)): 266.8%
% DAMGO + BFNA (μ opiate receptor (MOR)): 112.5%
% DAMGO (0.1 μM) (μ opiate receptor (MOR)): 126.6%
% DAMGO (1 μM) (μ opiate receptor (MOR)): 115.7%
inhibition at 0.01 µM [1, 4]: 38.7%
inhibition at 0.1 µM [1, 5]: 50%
inhibition at 1 µM [1, 6]: 50.8%
mean maximum antinociception ([2]; oral, 56 mg/kg): about 25%

CC1CCC(C(C)C)C(OCC(O)CN2CCN(CCN3CCOCC3)CC2)C1 (centres unmarked) [Compound A0011]
[35S]GTPγS binding to Gαo, FLNA-binding compound as agonist 0.1 μM (μ opiate receptor (MOR)): 236.3%
[35S]GTPγS binding to Gαo, FLNA-binding compound as agonist 1 μM + BFNA (μ opiate receptor (MOR)): 47.0%
[35S]GTPγS binding to Gαo, FLNA-binding compound as agonist 1 μM (μ opiate receptor (MOR)): 287.5%
mean maximum antinociception ([2]; oral, 56 mg/kg): about 38%

C=CCN1CC[C@]23c4c5ccc(O)c4O[C@H]2C(=O)CC[C@@]3(O)[C@H]1C5 [NLX, naloxone]
Kd (filamin A): ~4 pM

CC1CN(CC(O)COc2cccc(F)c2)CC(C)O1 (centres unmarked) [Compound A0049]
[35S]GTPγS binding to Gαo, FLNA-binding compound as agonist 0.1 μM (μ opiate receptor (MOR)): 232.3%
[35S]GTPγS binding to Gαo, FLNA-binding compound as agonist 1 μM + BFNA (μ opiate receptor (MOR)): 107.1%
[35S]GTPγS binding to Gαo, FLNA-binding compound as agonist 1 μM (μ opiate receptor (MOR)): 370.3%
mean maximum antinociception ([2]; oral, 56 mg/kg): about 45%

CC1CCC(C(C)C)C(OCC(O)CN2CC(C)OC(C)C2)C1 (centres unmarked) [Compound 3333]
[35S]GTPγS binding to Gαo, FLNA-binding compound as agonist 0.1 μM (μ opiate receptor (MOR); listed as A3333): 170.7%
[35S]GTPγS binding to Gαo, FLNA-binding compound as agonist 1 μM + BFNA (μ opiate receptor (MOR); listed as A3333): 65.9%
[35S]GTPγS binding to Gαo, FLNA-binding compound as agonist 1 μM (μ opiate receptor (MOR); listed as A3333): 328.3%
Go (MOR in anti-Gαo immunoprecipitate), average ([3]; 10 μM): 1426.3
Gs/Go-Coupled Ratio, average ([3]; 10 μM): 0.761
Gs/olf (MOR in anti-Gαs/olf immunoprecipitate), average ([3]; 10 μM): 1079.0
Go (MOR in anti-Gαo immunoprecipitate), average ([3]; 100 μM): 1418.8
Gs/Go-Coupled Ratio, average ([3]; 100 μM): 0.756
Gs/olf (MOR in anti-Gαs/olf immunoprecipitate), average ([3]; 100 μM): 1064.8

CN1CC[C@]23c4c5ccc(O)c4O[C@H]2[C@@H](O)C=C[C@H]3[C@H]1C5 [morphine, reference compound]
mean maximum antinociception ([2]; oral, 56 mg/kg): about 43%
time of maximum antinociception (peak activity) ([2]; oral, 56 mg/kg): about 20 minutes
time of maximum antinociception (peak activity) ([2]; oral, 56 mg/kg, listed as Morphine): twenty
A50 (dose that resulted in a 50% antinociceptive effect), with 95% CI ([2]; orally administered, 52° C. tail flick): 61.8 (52.4-72.9) mg/kg

CC1CN(CC(O)COc2ccc(Br)c(F)c2)CC(C)O1 (centres unmarked) [Compound A0041]
[35S]GTPγS binding to Gαo, FLNA-binding compound as agonist 0.1 μM (μ opiate receptor (MOR)): 212.7%
[35S]GTPγS binding to Gαo, FLNA-binding compound as agonist 1 μM + BFNA (μ opiate receptor (MOR)): 50.6%
[35S]GTPγS binding to Gαo, FLNA-binding compound as agonist 1 μM (μ opiate receptor (MOR)): 283.6%
mean maximum antinociception ([2]; 32 mg/kg): about 12%
time of maximum antinociception ([2]; 32 mg/kg): 10 to 15 min

OC(COc1ccccc1Br)CN1CCN(CCN2CCOCC2)CC1 (centres unmarked) [Compound A0064]
[35S]GTPγS binding to Gαo, FLNA-binding compound as agonist 0.1 μM (μ opiate receptor (MOR)): 219.2%
[35S]GTPγS binding to Gαo, FLNA-binding compound as agonist 1 μM + BFNA (μ opiate receptor (MOR)): 43.7%
[35S]GTPγS binding to Gαo, FLNA-binding compound as agonist 1 μM (μ opiate receptor (MOR)): 262.9%
% DAMGO + BFNA (μ opiate receptor (MOR)): 126.7%
% DAMGO (0.1 μM) (μ opiate receptor (MOR)): 127.4%
% DAMGO (1 μM) (μ opiate receptor (MOR)): 119.7%
inhibition at 0.01 µM [1, 7]: 41.8%
inhibition at 0.1 µM [1, 8]: 46.2%
inhibition at 1 µM [1, 9]: 53.6%
mean maximum antinociception ([2]; 32 mg/kg): about 50%
time of maximum antinociception ([2]; 32 mg/kg): 30 to 50 min

O=C1CC[C@@]2(O)[C@H]3Cc4ccc(O)c5c4[C@@]2(CCN3CC2CC2)[C@H]1O5 [NTX, naltrexone]
Kd (filamin A): ~4 pM

CC1CCCC(OCC(O)CN2CC(C)OC(C)C2)C1 (centres unmarked) [Compound A0021]
[35S]GTPγS binding to Gαo, FLNA-binding compound as agonist 0.1 μM (μ opiate receptor (MOR)): 133.3%
[35S]GTPγS binding to Gαo, FLNA-binding compound as agonist 1 μM + BFNA (μ opiate receptor (MOR)): 12.1%
[35S]GTPγS binding to Gαo, FLNA-binding compound as agonist 1 μM (μ opiate receptor (MOR)): 275.3%
mean maximum antinociception ([2]; oral, 56 mg/kg): about 25%

CC1CCC(C(C)C)C(OCC(O)CN2CCOc3ccccc32)C1 (centres unmarked) [Compound A0066]
[35S]GTPγS binding to Gαo, FLNA-binding compound as agonist 0.1 μM (μ opiate receptor (MOR)): 151.9%
[35S]GTPγS binding to Gαo, FLNA-binding compound as agonist 1 μM + BFNA (μ opiate receptor (MOR)): 59.2%
[35S]GTPγS binding to Gαo, FLNA-binding compound as agonist 1 μM (μ opiate receptor (MOR)): 195.6%
% DAMGO + BFNA (μ opiate receptor (MOR)): 171.6%
% DAMGO (0.1 μM) (μ opiate receptor (MOR)): 88.3%
% DAMGO (1 μM) (μ opiate receptor (MOR)): 89.0%
inhibition at 0.01 µM [1, 7]: 36.7%
inhibition at 0.1 µM [1, 8]: 45.4%
inhibition at 1 µM [1, 9]: 53.7%

CC1CCC(C(C)C)C(OCC(O)CN2CCN(Cc3ccccc3)CC2)C1 (centres unmarked) [Compound A0072]
[35S]GTPγS binding to Gαo, FLNA-binding compound as agonist 0.1 μM (μ opiate receptor (MOR)): 254.3%
[35S]GTPγS binding to Gαo, FLNA-binding compound as agonist 1 μM + BFNA (μ opiate receptor (MOR)): 171.8%
[35S]GTPγS binding to Gαo, FLNA-binding compound as agonist 1 μM (μ opiate receptor (MOR)): 305.1%
% DAMGO + BFNA (μ opiate receptor (MOR)): 318.7%
% DAMGO (0.1 μM) (μ opiate receptor (MOR)): 126.8%
% DAMGO (1 μM) (μ opiate receptor (MOR)): 97.2%
inhibition at 0.01 µM [1, 4]: 45.5%
inhibition at 0.1 µM [1, 5]: 52.2%
inhibition at 1 µM [1, 6]: 59.4%
